Results: ChEMBL document CHEMBL1629626, “Ultrastructural effects of oritavancin on methicillin-resistant Staphylococcus aureus and vancomycin-resistant Enterococcus” (2009)
Activity calls are given as the source filed them. No cut-off for these calls is given here.

Key:
[1] = test system: Enterococcus faecalis; assay: Antimicrobial activity against Enterococcus faecalis clinical isolate A5241515 assessed as formation of extensive fibrils around the cell at 0.12 ug/ml after 3 hrs by transmission electron microscopy; format: functional, organism-based
[2] = test system: Staphylococcus aureus; assay: Antimicrobial activity against methicillin-resistant Staphylococcus aureus ATCC 43300 assessed as reduction in cell counts at 1 ug/ml after 10 mins; format: functional
[3] = test system: Enterococcus faecalis; assay: Antimicrobial activity against Enterococcus faecalis clinical isolate A5241515 assessed as growth inhibition at 0.12 ug/ml upto 3 hrs; format: functional, organism-based
[4] = test system: Enterococcus faecalis; assay: Antimicrobial activity against Enterococcus faecalis clinical isolate A5241515 assessed as growth inhibition at 1 ug/ml upto 6 hrs; format: functional, organism-based
[5] = test system: Staphylococcus aureus; assay: Antimicrobial activity against methicillin-resistant Staphylococcus aureus ATCC 43300 assessed as septal deformation at 1 ug/ml after 10 mins by transmission electron microscopy; format: functional, organism-based
[6] = test system: Staphylococcus aureus; assay: Antimicrobial activity against methicillin-resistant Staphylococcus aureus ATCC 43300 assessed as aberrant septum formation at 1 ug/ml after 10 mins by transmission electron microscopy; format: functional, organism-based
[7] = test system: Staphylococcus aureus; assay: Antimicrobial activity against methicillin-resistant Staphylococcus aureus ATCC 43300 assessed as loss of septal midline at 1 ug/ml after 10 mins by transmission electron microscopy; format: functional, organism-based
[8] = test system: Staphylococcus aureus; assay: Antimicrobial activity against methicillin-resistant Staphylococcus aureus ATCC 43300 assessed as formation of membrane inclusions at 1 ug/ml after 10 mins by transmission electron microscopy; format: functional, organism-based
[9] = test system: Enterococcus faecalis; assay: Antimicrobial activity against Enterococcus faecalis clinical isolate A5241515 assessed as cell ghost formation at 0.12 ug/ml after 3 hrs by transmission electron microscopy; format: functional, organism-based
[10] = test system: Staphylococcus aureus; assay: Antimicrobial activity against methicillin-resistant Staphylococcus aureus ATCC 43300 assessed as cell wall thickening at 1 ug/ml after 10 mins by transmission electron microscopy; format: functional, organism-based
[11] = test system: Enterococcus faecalis; assay: Antimicrobial activity against Enterococcus faecalis clinical isolate A5241515 assessed as formation of large membrane inclusions at 1 ug/ml after 6 hrs by transmission electron microscopy; format: functional, organism-based
[12] = test system: Enterococcus faecalis; assay: Antimicrobial activity against Enterococcus faecalis clinical isolate A5241515 assessed as septal deformation at 0.12 ug/ml after 3 hrs by transmission electron microscopy; format: functional, organism-based
[13] = test system: Staphylococcus aureus; assay: Antimicrobial activity against methicillin-resistant Staphylococcus aureus ATCC 43300 assessed as reduction in cell counts at 16 ug/ml after 3 hrs; format: functional
[14] = test system: Staphylococcus aureus; assay: Antimicrobial activity against methicillin-resistant Staphylococcus aureus ATCC 43300 assessed as septal deformation at 16 ug/ml after 3 hrs by transmission electron microscopy; format: functional, organism-based
[15] = test system: Staphylococcus aureus; assay: Antimicrobial activity against methicillin-resistant Staphylococcus aureus ATCC 43300 assessed as aberrant septum formation at 16 ug/ml after 3 hrs by transmission electron microscopy; format: functional, organism-based
[16] = test system: Staphylococcus aureus; assay: Antimicrobial activity against methicillin-resistant Staphylococcus aureus ATCC 43300 assessed as loss of septal midline at 16 ug/ml after 3 hrs by transmission electron microscopy; format: functional, organism-based
[17] = test system: Staphylococcus aureus; assay: Antimicrobial activity against methicillin-resistant Staphylococcus aureus ATCC 43300 assessed as formation of closing iris septal growth pattern at 16 ug/ml after 3 hrs by transmission electron microscopy; format: functional, organism-based
[18] = test system: Staphylococcus aureus; assay: Antimicrobial activity against methicillin-resistant Staphylococcus aureus ATCC 43300 assessed as cell wall thickening at 16 ug/ml after 3 hrs by transmission electron microscopy; format: functional, organism-based

CN[C@H](CC(C)C)C(=O)N[C@H]1C(=O)N[C@@H](CC(N)=O)C(=O)N[C@H]2C(=O)N[C@H]3C(=O)N[C@H](C(=O)N[C@H](C(=O)O)c4cc(O)cc(O)c4-c4cc3ccc4O)[C@H](O[C@H]3C[C@](C)(N)[C@@H](O)[C@H](C)O3)c3ccc(c(Cl)c3)Oc3cc2cc(c3O[C@@H]2O[C@H](CO)[C@@H](O)[C@H](O)[C@H]2O[C@H]2C[C@](C)(NCc3ccc(-c4ccc(Cl)cc4)cc3)[C@@H](O)[C@H](C)O2)Oc2ccc(cc2Cl)[C@H]1O [ORITAVANCIN]
Activity [1]: Active | fold change (FC) [2]: 0.35 | Activity [3]: Active | Activity [4]: Active | Activity [5]: Active | Activity [6]: Active | Activity [7]: Active | Activity [8]: Active | Activity [9]: Active | Activity [10]: Active | Activity [11]: Active | Activity [12]: Active

CN[C@H](CC(C)C)C(=O)N[C@H]1C(=O)N[C@@H](CC(N)=O)C(=O)N[C@H]2C(=O)N[C@H]3C(=O)N[C@H](C(=O)N[C@H](C(=O)O)c4cc(O)cc(O)c4-c4cc3ccc4O)[C@H](O)c3ccc(c(Cl)c3)Oc3cc2cc(c3O[C@@H]2O[C@H](CO)[C@@H](O)[C@H](O)[C@H]2O[C@H]2C[C@](C)(N)[C@H](O)[C@H](C)O2)Oc2ccc(cc2Cl)[C@H]1O [VANCOMYCIN]
fold change (FC) [13]: 0.26 | Activity [14]: inactive | Activity [15]: inactive | Activity [16]: inactive | Activity [17]: Active | Activity [18]: Active
